Experimental data: US20070098787A1, “Composition for preventing and treating varicose veins of lower extremities” (MOCHIDA PHARMACEUTICAL CO., LTD., priority 2003, published 2007)

System: varicose veins of lower extremities
Assay: Case report: patient with varicose veins of lower extremities, Dorner replaced with EPADEL S
Assay type: in vivo, human
Settings: person
Experimental: A person diagnosed with hypertension, diabetes, hyperlipidemia, and varicose veins of lower extremities (serious conditions with multiple dilatations, winding varices, and skin pigmentation in both legs) was administered with Dorner (trade name; manufactured by Toray Industries, Inc.; generic name, beraprost sodium; a therapeutic agent for chronic artery occlusion) in expectation of therapeutic effect on varicose veins of lower extremities together with Adalat L (trade name; manufactured by Bayer; generic name, nifedipine; coronary vasodilator), Basen (trade name; manufactured by Takeda Pharmaceutical Company Limited; generic name, voglibose; α-glucosidase inhibitor), Lochol (trade name; manufactured by Ciba Geigy Japan Ltd.; generic name, fluvastatin sodium; HMG-CoA reductase inhibitor), and NU-LOTAN (trade name; manufactured by Banyu Pharmaceutical Co., Ltd.; generic name, losartan potassium; angiotensin II receptor antagonist). […] Accordingly, Dorner was replaced with EPADEL S (trade name; manufactured by Mochida Pharmaceutical Co., Ltd.; generic name, ethyl eicosapentate (EPA-E)) at a dose of 600 mg×3 packets per day. […] The skin pigmentation also disappeared. […] No therapeutic method was changed except the change of the drug from Dorner to EPADEL S.

[1] = 600 mg×3 packets per day, after about 1 month, Dorner replaced, other medication unchanged

## CC#CCC(C)[C@H](O)/C=C/[C@@H]1[C@H]2c3cccc(CCCC(=O)O)c3O[C@H]2C[C@H]1O (mixture of isomers) [Dorner, beraprost sodium]
Serious conditions in both legs, Dorner given together with Adalat L, Basen, Lochol and NU-LOTAN, after the medication
  improvement in the varicose veins of lower extremities: No improvement

## CC/C=C\C/C=C\C/C=C\C/C=C\C/C=C\CCCC(=O)OCC [EPADEL S, ethyl eicosapentate]
600 mg×3 packets per day, about 1 month
  adverse event presumably caused by the drug: No adverse event
600 mg×3 packets per day, after about 1 month
  skin pigmentation: disappeared
[1]
  varicose veins in the left leg: substantial improvement
  varicose veins in the right leg: substantial disappearance
